Results taken from patent publication US20120071493A1, “SUBSTITUTED 8-SULFONYL-2,3,4,5-TETRAHYDRO-1H-GAMMA-CARBOLINES, LIGANDS AND PHARMACEUTICAL COMPOSITION; METHOD FOR THE PRODUCTION AND USE OF SAME” (priority 2009, published 2012).
Counter-ions that a name gives are not always drawn.

Assays:
[1] = target: T1, recombinant human 5-HT6 receptor (Homo sapiens, UniProt P50406); experiment: Antagonistic activity towards serotonin 5-HT6 receptors, cAMP cell function experiment; assay type: cell-based; conditions: HEK 293 cells expressing recombinant human 5-HT6 receptor; cAMP response to 10 μM serotonin; read-out: IC50, ability to block serotonin 5-HT6 receptors in the setting of cell function experiments
T1 construct: host or cells: HEK 293 cells with tetracycline-induced T-Rex system (Invitrogen)
T1 sequence (P50406 whole entry): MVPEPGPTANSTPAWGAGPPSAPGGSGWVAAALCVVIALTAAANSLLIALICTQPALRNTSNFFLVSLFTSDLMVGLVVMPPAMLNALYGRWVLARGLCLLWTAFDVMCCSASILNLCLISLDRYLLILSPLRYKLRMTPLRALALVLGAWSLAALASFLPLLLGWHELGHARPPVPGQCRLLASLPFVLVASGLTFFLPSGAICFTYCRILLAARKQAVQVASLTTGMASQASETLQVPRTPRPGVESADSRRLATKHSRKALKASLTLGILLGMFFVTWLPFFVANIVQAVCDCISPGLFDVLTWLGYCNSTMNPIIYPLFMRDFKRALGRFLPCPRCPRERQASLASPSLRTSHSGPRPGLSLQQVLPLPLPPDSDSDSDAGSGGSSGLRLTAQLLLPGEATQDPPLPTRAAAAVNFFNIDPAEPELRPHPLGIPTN
Procedure: Determination of antagonistic activity of substituted 8-sulfonyl-2,3,4,5-tetrahydro-1H-γ-carbolines of the general formula 1 towards serotonin 5-HT6 receptors. HEK 293 cells with tetracycline-induced T-Rex system (Invitrogen, USA) consistently expressing recombinant human 5-HT6 receptor, production of Etogen Scientific (USA), were used. The cells were grown in DMEM/10% FBS/1% AAS medium with Blasticidine S and Zeocin (both—Invitrogen, USA). According to the method worked up by the producer of T-Rex system tetracycline hydrochloride was added to the medium with the cells for the purpose of activation of 5-HT6 receptor expression. The cells were embedded in 96-well plates (30,000-40,000 cells per well) and incubated in 5%-CO2 incubator at 37° C. for 24 hs. Before experiments cells medium was replaced by Hank's balanced salt solution (HBSS), comprising 0.137 M NaCl, 5.4 mM KCl, 0.25 mM Na2HPO4, 0.44 mM KH2PO4, 1.3 mM CaCl2, 1.0 mM MgSO4, 5 mM HEPES (pH 7.4), 0.05% BSA and 1 mM IBMX. The tested compounds of general formula 1 were added to the cells in various concentrations. After incubation of the cells for 15 min at room temperature serotonin was added to them up to final concentration of 10 μM and incubation was continued for 30 min. The newly formed cAMP was determined by reagent kit LANCE cAMP Kit, according to the method described by the kit manufacturer […] (PerkinElmer, CIIIA). […] The data given testify that novel γ-carbolines of the general formula 1 are effective serotonin 5-HT6 receptor antagonists. Some of γ-carbolines of the general formula 1 have IC50<0.5 μM in the setting of cell function experiments (IC50—antagonist concentration blocking 5-HT6 receptors for 50%).

[2] = test system: male mice of BALB/c line; experiment: Mice Behavior in the Elevated Plus Maze test; assay type: in vivo
Procedure: The experiments were carried out in aged male mice of BALB/c line weighing about 25 g. Animals were housed 5-7 per cage with water and food available. None of animals was acquainted with experimental set-up before. Each experimental group included 8 animals.
The procedure used was described earlier by Lister (Lister R. G. The use of a plus-maze to measure anxiety in the mouse. Psychopharmacology, 1987; 92:180-185). Plexiglass set-up consisted of two opened arms of 30×5 cm size and two closed arms of 30×5×15 cm size was used. Side arms were closed with transparent plexiglass and were connected with central zone via platform of 5×5 cm size. Opened arms, central platform and floor were made of black plexiglass. The set-up was mounted on a metallic base which was placed 38.5 cm above floor level.
Animals were injected intraperitoneally with placebo, Buspirone (5 mg/kg, 30 minutes before training), Lorazepam (0.05 mg/kg, 60 minutes before training) or with one of the compounds of the general formula 1, for example, compound 1.1.1(4).HCl or compound 1.2.1(3).HCl in doses 0.05 mg/kg and 0.2 mg/kg. Buspirone and Lorazepam were introduced in maximal effective dose, at which side sedative effect and general decrease of exploratory activity (number of arm entries during the test) were not observed yet.
Each mouse was placed in maze center with its head towards the opened arm. Over a period of 5 minutes the sequence and duration of arm entries were registered by means of computer program. Criterion for entry is location of all animal's paws inside the arm at the same time. Index of preference was calculated as ratio of the time spent by animal in opened arms as well as the number of entries into opened arms to the total time spent by it in opened and closed arms or, respectively, to the whole number of entries to arms of both types. The number of defecations left by mouse was regarded as additional parameter characterizing anxiety state.

[3] = test system: male mice of SHK line; experiment: Novel Object Recognition test, Scopolamine-disturbed recognition; assay type: in vivo; conditions: Scopolamine 1 mg/kg
Procedure: The test was carried out in aged male mice of SHK line. Plexiglass plus maze, consisted of 4 dead-end chambers (numbered 1, 2, 3, 4), joined together through the fifth central chamber, was used in experiments. Mouse was placed into central chamber and allowed to explore the maze. Floor was cleaned after each animal. The sequence of chamber entries and duration of visits were registered by observer. Test was ended after 13 entries into dead-end chambers. Criterion for entry was location of all animal's paws inside the chamber at the same time.
During the training an animal was placed in the maze with one equiform bowl in each side chamber. In the course of testing (one hour after training) two opposite standing bowls were replaced by identical flasks, and animal was allowed to explore the maze. The time spent by animal in each side chamber was registered during the periods of training and testing. Index of novel object recognition was calculated as ratio of time spent by animal in side chambers with novel objects to the total time spent by it in all side chambers. In comparison with the training phase the appearance of novel object extends the time spent by animal in the chamber with novel object (so-called effect of novel object recognition). The recognition of novel objects was disturbed under action of Scopolamine administered in 1 mg/kg dose intraperitoneally 30 minutes before training, and recognition index was decreased.

Structure (SMILES)	IC50 [1] [µM]	other results
CN1CCc2[nH]c3ccc(S(=O)(=O)c4cccnc4)cc3c2C1 [1.1(1)•2HCl]	0.085	
CN1CCc2[nH]c3ccc(S(=O)(=O)c4ccncc4)cc3c2C1 [1.1(2)•2HCl]	6.9	
Cc1ccc(S(=O)(=O)n2c3c(c4cc(S(=O)(=O)c5ccccc5)ccc42)CN(C)CC3)cc1 [1.1(10)•HCl, 2-Methyl-5-(4-methylphenylsulfonyl)-8-(phenylsulfonyl)-2,3,4,5-tetrahydro-1H-γ-caboline hydrochloride]	~10	
CN1CCc2c(c3cc(S(=O)(=O)c4ccccc4)ccc3n2CCc2ccccn2)C1 [1.1(16)•2HCl]	0.615	
CN1CCc2[nH]c3ccc(S(=O)(=O)c4cccc(F)c4)cc3c2C1 [1.1.1(3)•HCl]	0.085	
CN1CCc2[nH]c3ccc(S(=O)(=O)N(C)C)cc3c2C1 [1.2(1), N,N,2-Trimethyl-2,3,4,5-tetrahydro-1H-γ-carboline-8-sulfonamide]	~10	
O=S(=O)(Nc1cccc(F)c1)c1ccc2[nH]c3c(c2c1)CN(Cc1ccccc1)CC3 [1.2(6)•HCl]	0.022	
CN1CCN(S(=O)(=O)c2ccc3[nH]c4c(c3c2)CN(C)CC4)CC1 [1.2(10)]	62	
O=C1CC2(CCCC2)CC(=O)N1CCCCN1CCN(c2ncccn2)CC1 [Buspirone, reference compound]		anxiolytic effect in elevated plus maze ([2]; 5 mg/kg intraperitoneally, 30 minutes before training): well-marked anxiolytic effect
Cc1ccc2c(c1)c1c(n2CCc2ccc(C)nc2)CCN(C)C1 [Dimebon, reference compound]		prevention of Scopolamine influence on novel object recognition ([3]; 0.1 mg/kg intraperitoneally 5 minutes before training): could be prevented
O=C1Nc2ccc(Cl)cc2C(c2ccccc2Cl)=NC1O (stereo not drawn) [Lorazepam, reference compound]		anxiolytic effect in elevated plus maze ([2]; 0.05 mg/kg intraperitoneally, 60 minutes before training): well-marked anxiolytic effect
Nc1c2c(nc3ccccc13)CCCC2 [Tacrine, reference compound]		prevention of Scopolamine influence on novel object recognition ([3]; 10 mg/kg intraperitoneally 30 minutes before training): could be prevented
